Laboratory results: US20240368163A1, “COMPOUNDS AND METHODS FOR MODULATING SPLICING” (REMIX THERAPEUTICS INC., priority 2021, published 2024)
Where two headings read alike, the source gives them in different places.

What was measured:
MYB = assay: Splicing RT-qPCR assay, MYB mRNA canonical junction (CJ) and alternative junction (AJ); type: cell-based, human; conditions: Homo sapiens; for AC50: increase in AJ mRNA
Procedure, shortened: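 A673 or K562 cells treated 24 h at 37 °C with 11-point 3-fold dilutions, top 10 uM, DMSO ≤0.25%. Lysates read by RT-qPCR for CJ and AJ isoforms, normalized to GAPDH, GUSB or PPIA; ΔΔCt vs DMSO converted to RQ, then percent response.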

[1] = Transwell assay for membrane efflux and permeability; type: in vitro ADME, Canine; conditions: dog; MDCK-BCRP or MDCKII-MDR1 transwell, test compound 1 μM, 2 hours at 37° C.
Source text: Compounds described herein were screened for cell membrane permeability and efflux in a transwell assay using Madin-Darby Canine Kidney (MDCK) cells expressing Breast Cancer Resistance Protein (BCRP) or subclone MDCKII cells expressing Multidrug Resistance Protein 1 (MDR1).
MDCK-BCRP or MDCKII-MDR1 Cells: The Netherlands Cancer Institute, High Glucose Dulbecco's Modified Eagle's Medium (DMEM): Gibco/Thermo Fisher Scientific, Fetal Bovine Serum (FBS): Coming, Hank's Balanced Salt Solution (HBSS) and Trypsin/EDTA: Gibco/Thermo Fisher Scientific, HTS Transwell-96 Well Permeable Supports: Coming Corporation, Millicell Epithelial Volt-Ohm: Millipore, Cellometer® Vision: Nexcelom Bioscience LLC, Infinite 200 PRO microplate reader: Tecan, MTS2/4 orbital shaker: IKA Labortechnik, HEPES/Penicillin/Streptomycin: Solarbio.
MDCK-BCRP or MDCKII-MDR1 cells were seeded to each of the wells of the transwell plate at a density of 1.6×10^6 cells/mL and the plate was incubated for 4-8 days with medium changes every two days. To perform the drug transport assay, cell monolayers were first washed three times with pre-warmed HBSS and then incubated with gentle shaking (150 rpm) for 30 min at 37° C. Stock solutions of test compounds (e.g., exemplary compounds of Formulas (I), (II), and (III)) and control compounds (e.g., metoprolol, prazosin, and/or imatinib) were prepared in DMSO and adjusted to a working solution using HBSS. The final concentration of test compounds was 1 μM with DMSO; 0.5%. The plates were incubated at 37° C. for 2 hours.

[2] = gene panel, CJ qPCR, protocol of Example 142, read-out: MYB IC50 (decrease in CJ mRNA levels)
[3] = 24 h, decrease in CJ mRNA, A673 or K562 cells, 24 hours treatment, RT-qPCR, read-out: MYB CJ IC50
[4] = 24 h, A673 or K562 cells, 24 hours treatment, RT-qPCR
[5] = RT-qPCR panel, canonical junction mRNA, compound concentration having 50% response in CJ decrease, read-out: MYB IC50 (decrease in CJ mRNA levels)

| SMILES | IC50 (MYB; [2]) | Papp at 2 h, 1 μM [1] | efflux ratio at 2 h, 1 μM [1] | IC50 (MYB; [3]) | AC50 (MYB; [4]) | IC50 (MYB; [5]) |
| --- | --- | --- | --- | --- | --- | --- |
| COc1nc(-c2ccc(N(C)C3CC(C)(C)NC(C)(C)C3)nn2)ccc1-c1cn[nH]c1 [Compound 919] | 0.1 to 1 µM | < 20 nm/s | > 5 |  |  |  |
| CN(c1ccc(-c2ccc(-c3cn[nH]c3)c(C#N)n2)nn1)[C@@H]1C[C@H]2CC[C@@H](C1)N2 [Compound 930] | 0.1 to 1 µM | < 20 nm/s | > 5 |  |  |  |
| COc1nc(-c2ccc(OC3CC(C)(C)NC(C)(C)C3)nn2)ccc1-c1cn[nH]c1 [Compound 917] | 0.1 to 1 µM | 20 to 60 nm/s | > 5 |  |  |  |
| Fc1cc(-c2ccc(OC3CC4CC(F)(F)C(C3)N4)nn2)c2[nH]ncc2c1-c1cn[nH]c1 (stereo not drawn) [Compound 313, 7-[6-({6,6-difluoro-8-azabicyclo[3.2.1]octan-3-yl}oxy)pyridazin-3-yl]-5-fluoro-4-(1H-pyrazol-4-yl)-1H-indazole] |  |  | < 1.5 | 0.1 to 1 µM | 0.1 to 1 µM | 0.1 to 1 µM |
| c1nc2c(-c3cn[nH]c3)ccc(-c3ccc(N(C4CC4)C4C[C@H]5CCC[C@@H](C4)N5)nn3)c2s1 (stereo partly drawn) [Compound 311] |  | < 20 nm/s | > 5 | 0.1 to 1 µM | 0.1 to 1 µM | 0.1 to 1 µM |
| COc1nc(-c2ccc(N(C)[C@@H]3C[C@H]4CC[C@@H](C3)N4)nn2)cc(F)c1-c1cn[nH]c1 [Compound 931] | < 0.1 µM | < 20 nm/s | > 5 |  |  |  |
| COc1nc(-c2ccc(N(C)C3CC(C)(C)NC(C)(C)C3)nn2)ccc1-c1cnn(C)c1 [Compound 920] | 0.1 to 1 µM | 20 to 60 nm/s | > 5 |  |  |  |
| c1nc2c(-c3cn[nH]c3)ccc(-c3ccc(O[C@@H]4C[C@H]5CC[C@@H](C4)N5)nn3)c2s1 [Compound 184] |  | < 20 nm/s | > 5 | 0.1 to 1 µM | < 0.1 µM | 0.1 to 1 µM |
| c1cnn(-c2ccc(-c3cnc(N[C@@H]4C[C@H]5CC[C@@H](C4)N5)nn3)c3cn[nH]c23)c1 [Compound 556] |  | 20 to 60 nm/s | > 5 |  |  | 0.1 to 1 µM |
| COc1nc(-c2ccc(OC3CC(C)(C)NC(C)(C)C3)nn2)ccc1-c1cnn(C)c1 [Compound 918] | 0.1 to 1 µM | 20 to 60 nm/s | > 5 |  |  |  |
| COc1nc(-c2ccc(OC3CC(C)(C)NC(C)(C)C3)nn2)cc(F)c1-c1cn[nH]c1 [Compound 965] | 0.1 to 1 µM | 20 to 60 nm/s | > 5 |  |  |  |
| COc1nc(-c2ccc(OC3CC4CC(F)(F)C(C3)N4)nn2)cc(F)c1-c1cn[nH]c1 (stereo not drawn) [Compound 969] | > 10 µM | 20 to 60 nm/s | > 5 |  |  |  |
| Cc1nc(-c2ccc(-c3cnc(N(C)[C@@H]4C[C@H]5CCC[C@@H](C4)N5)nn3)c3scnc23)cs1 [Compound 579] |  | < 20 nm/s | > 5 |  |  | 1 to 10 µM |
| CN(c1ccc(-c2ccc(-c3cn[nH]c3)c3cn[nH]c23)nn1)[C@@H]1C[C@H]2CC[C@@H](C1)N2 [Compound 104] |  | < 20 nm/s | > 5 | 1 to 10 µM | 1 to 10 µM | 1 to 10 µM |
| Fc1cc(-c2ccc(N[C@@H]3C[C@H]4CC[C@@H](C3)N4)nn2)c2scnc2c1-c1cn[nH]c1 [Compound 339] |  | < 20 nm/s | 1.5 to 5 | < 0.1 µM | < 0.1 µM | < 0.1 µM |
| Fc1ccn(-c2ccc(-c3ccc(O[C@@H]4C[C@H]5CC[C@@H](C4)N5)nn3)c3scnc23)n1 [Compound 363] |  | < 20 nm/s | 1.5 to 5 | 0.1 to 1 µM | 0.1 to 1 µM | 0.1 to 1 µM |
| c1n[nH]cc1-c1ccc(-c2ccc(N[C@@H]3C[C@H]4CCC[C@@H](C3)N4)nn2)c2[nH]ncc12 [Compound 294] |  | < 20 nm/s | 1.5 to 5 | 0.1 to 1 µM | 0.1 to 1 µM | 0.1 to 1 µM |

| SMILES | IC50 (MYB; [2]) | Papp at 2 h, 1 μM [1] | efflux ratio at 2 h, 1 μM [1] | IC50 (MYB; [3]) | AC50 (MYB; [4]) | IC50 (MYB; [5]) |
| --- | --- | --- | --- | --- | --- | --- |
| c1cnn(-c2ccc(-c3cnc(N[C@@H]4C[C@H]5CCC[C@@H](C4)N5)nn3)c3cn[nH]c23)c1 [Compound 561] |  | 20 to 60 nm/s | > 5 |  |  | 0.1 to 1 µM |
| CC(C)(C)C1CN(c2ncc(-c3ccc(-n4cccn4)c4[nH]ncc34)nn2)CCN1 (stereo not drawn) [Compound 572] |  | < 20 nm/s | < 1.5 |  |  | 0.1 to 1 µM |
| [2H]C([2H])([2H])N(c1ccc(-c2ccc(-c3cn[nH]c3)c3ncsc23)nn1)[C@@H]1C[C@H]2CC[C@@H](C1)N2 [Compound 210] |  | < 20 nm/s | > 5 | < 0.1 µM | < 0.1 µM | < 0.1 µM |
| Fc1cc(-c2ccc(O[C@@H]3C[C@H]4CC[C@@H](C3)N4)nn2)c2[nH]ncc2c1-c1cn[nH]c1 [Compound 216] |  | < 20 nm/s | > 5 | 0.1 to 1 µM | < 0.1 µM | 0.1 to 1 µM |
| CN(c1ccc(-c2ccc(-c3cn[nH]c3)c3ncsc23)nn1)[C@@H]1C[C@H]2CC[C@@H](C1)N2 [Compound 213] |  | < 20 nm/s | > 5 | 0.1 to 1 µM | 0.1 to 1 µM | 0.1 to 1 µM |
| COc1nc(-c2ccc(N3CCC(NC(C)(C)C)C3)nn2)ccc1-c1cn[nH]c1 (stereo not drawn) [Compound 956] | 0.1 to 1 µM | 20 to 60 nm/s | > 5 |  |  |  |
| CN(c1ccc(-c2ccc(-c3cn[nH]c3)c3ncsc23)nn1)C1CC(C)(C)NC(C)(C)C1 [Compound 132] |  | < 20 nm/s | > 5 | 0.1 to 1 µM | 1 to 10 µM | 0.1 to 1 µM |
| CC1(C)CC(Oc2ccc(-c3ccc(-c4cn[nH]c4)c4ncsc34)nn2)CCN1 (stereo not drawn) [Compound 182] |  | < 20 nm/s | > 5 | 1 to 10 µM | > 10 µM | 1 to 10 µM |
| COc1nc(-c2ccc(N(C)[C@@H]3C[C@H]4CC[C@@H](C3)N4)nn2)ccc1-c1cn[nH]c1 [Compound 906] | 0.1 to 1 µM | < 20 nm/s | > 5 |  |  |  |
| CN(c1ccc(-c2ccc(-c3cn[nH]c3)c3ncsc23)nn1)[C@H]1C[C@]2(C)CC[C@](C)(C1)N2 [Compound 204] |  | < 20 nm/s | > 5 | < 0.1 µM | 0.1 to 1 µM | < 0.1 µM |
| Cc1cc(-c2ccc(-c3cnc(N(C)[C@@H]4C[C@H]5CCC[C@@H](C4)N5)nn3)c3scnc23)sn1 [Compound 580] |  | < 20 nm/s | > 5 |  |  | 0.1 to 1 µM |
| CC(C)(C)[C@H]1CN(c2ncc(-c3ccc(-n4cccn4)c4[nH]ncc34)nn2)CCN1 [Compound 581] |  | 20 to 60 nm/s | < 1.5 |  |  | 0.1 to 1 µM |
| CN(c1ccc(-c2ccc(-c3cn[nH]c3)c(OC(F)F)n2)nn1)[C@@H]1C[C@H]2CC[C@@H](C1)N2 [Compound 955] | 0.1 to 1 µM | < 20 nm/s | > 5 |  |  |  |
| Fc1cc(-c2ccc(O[C@@H]3C[C@H]4CC[C@@H](C3)N4)nn2)c2sncc2c1-c1cn[nH]c1 [Compound 327] |  | 20 to 60 nm/s | > 5 | < 0.1 µM | < 0.1 µM | < 0.1 µM |
| CCN(c1ccc(-c2ccc(-c3cn[nH]c3)c3ncsc23)nn1)[C@@H]1C[C@H]2CCC[C@@H](C1)N2 [Compound 228] |  | < 20 nm/s | > 5 | 0.1 to 1 µM | 0.1 to 1 µM | 0.1 to 1 µM |
| COc1cc(-c2ccc(-c3ccc(N(C)C4CC(C)(C)NC(C)(C)C4)nn3)c3scnc23)cnn1 [Compound 330] |  | 20 to 60 nm/s | > 5 | 0.1 to 1 µM | 0.1 to 1 µM | 0.1 to 1 µM |
| [2H]C([2H])([2H])N(c1ccc(-c2ccc(-c3cn[nH]c3)c3ncsc23)nn1)[C@@H]1C[C@H]2CCC[C@@H](C1)N2 [Compound 227] |  | < 20 nm/s | > 5 | < 0.1 µM | < 0.1 µM | < 0.1 µM |
